Experimental data from patent publication US4595700A, “Thiol based collagenase inhibitors” (G. D. Searle & Co., priority 1985, dated 1986).
Values joined by “and” are separate entries in the source; they are usually repeats but may differ in a detail not shown here. Equal entries are not always repeated.

Target: T1, Human Rheumatoid Synovial collagenase (Homo sapiens, UniProt P03956)
T1 construct: from tissue; host or cells: rheumatoid synovium (tissue or synovial cell culture not distinguished)
T1 sequence (P03956 100-469): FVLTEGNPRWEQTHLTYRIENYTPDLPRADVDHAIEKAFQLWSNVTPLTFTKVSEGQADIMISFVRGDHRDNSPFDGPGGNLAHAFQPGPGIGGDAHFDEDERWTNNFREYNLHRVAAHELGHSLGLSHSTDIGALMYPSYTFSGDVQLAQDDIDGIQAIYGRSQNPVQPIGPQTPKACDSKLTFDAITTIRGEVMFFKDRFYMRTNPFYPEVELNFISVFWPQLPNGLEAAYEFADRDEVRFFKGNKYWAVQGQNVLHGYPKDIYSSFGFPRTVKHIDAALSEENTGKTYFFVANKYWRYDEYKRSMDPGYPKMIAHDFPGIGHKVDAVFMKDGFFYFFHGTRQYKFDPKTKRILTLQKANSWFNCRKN
Assay: inhibition of collagenase (acetyl 14C collagen digestion, Cawston and Barrett)
Type: biochemical
Settings: Table 2; 37° C., 16 hours, native acetyl 14C collagen, pH 7.6; read-out: IC50 (μM) Human Rheumatoid Synovial collagenase
Description: This was determined following the procedure of Cawston and Barrett, Anal. Biochem., 99, 340-345 (1979) whereby the 1 mM of the inhibitor being tested or dilutions thereof are incubated at 37° C. for 16 hours with native collagen and collagenase (buffered with Tris HCl--CaCl2; pH 7.6). The collagen is acetyl ^14 C collagen. The samples are centrifuged to sediment undigested collagen and an aliquot of the radiactive supernatant removed for assay on a scintillation counter as a measure of hydrolysis. The collagenase activity in the presence of 1 mM inhibitor, or a dilution thereof, is compared to activity in a control devoid of inhibitor and the results reported as that inhibitor concentration effecting 50% inhibition of the collagenase.

Row | Structure (SMILES) | IC50 [µM]
1 | CNC(=O)[C@H](Cc1ccc(OC)cc1)NC(=O)C(CC(C)C)C(C)S (single isomer, unassigned) [Example 1 Isomer A1, N-[2-(1-Mercaptoethyl)-4-methylpentanoyl]-O-methyl-L-tyrosine N-Methylamide] | 19
2 | CNC(=O)[C@H](Cc1ccc(OC)cc1)NC(=O)C(CC(C)C)C(C)S (single isomer, unassigned) [Example 1 Isomer A2, N-[2-(1-Mercaptoethyl)-4-methylpentanoyl]-O-methyl-L-tyrosine N-Methylamide] | 13
3 | CNC(=O)[C@H](Cc1ccc(OC)cc1)NC(=O)C(CC(C)C)C(C)S (single isomer, unassigned) [Example 1 Isomer B1, N-[2-(1-Mercaptoethyl)-4-methylpentanoyl]-O-methyl-L-tyrosine N-Methylamide] | 0.22
4 | CNC(=O)[C@H](Cc1ccc(OC)cc1)NC(=O)C(CC(C)C)C(C)S (single isomer, unassigned) [Example 1 Isomer B2, N-[2-(1-Mercaptoethyl)-4-methylpentanoyl]-O-methyl-L-tyrosine N-Methylamide] | 1.5
5 | CNC(=O)[C@H](Cc1ccc(OC)cc1)NC(=O)C(CC(C)C)C(S)c1ccccc1 (single isomer, unassigned) [Example 2 Isomer A1, N-[2-(1-S-Mercaptobenzyl)-4-methylpentanoyl]-O-methyl-L-tyrosine-N-methylamide] | 0.27
6 | CNC(=O)[C@H](Cc1ccc(OC)cc1)NC(=O)C(CC(C)C)C(S)c1ccccc1 (single isomer, unassigned) [Example 2 Isomer A2, N-[2-(1-S-Mercaptobenzyl)-4-methylpentanoyl]-O-methyl-L-tyrosine-N-methylamide] | 1.71
7 | CNC(=O)[C@H](Cc1ccc(OC)cc1)NC(=O)C(CC(C)C)C(S)c1ccccc1 (single isomer, unassigned) [Example 2 Isomer B1, N-[2-(1-S-Mercaptobenzyl)-4-methylpentanoyl]-O-methyl-L-tyrosine-N-methylamide] | 3.9
8 | CNC(=O)[C@H](Cc1ccc(OC)cc1)NC(=O)C(CC(C)C)C(S)c1ccccc1 (single isomer, unassigned) [Example 2 Isomer B2, N-[2-(1-S-Mercaptobenzyl)-4-methylpentanoyl]-O-methyl-L-tyrosine-N-methylamide] | 12
9 | CNC(=O)[C@H](Cc1ccc(OC)cc1)NC(=O)C(CC(C)C)C(S)C(C)C (single isomer, unassigned) [Example 3 Isomer A, N-(2-(1-Mercapto-2-methylpropyl)-4-methylpentanoyl)-O-methyl-L-tyrosine N-Methyl amide] | 2
10 | CNC(=O)[C@H](Cc1ccc(OC)cc1)NC(=O)C(CC(C)C)C(S)C(C)C (single isomer, unassigned) [Example 3 Isomer B, N-(2-(1-Mercapto-2-methylpropyl)-4-methylpentanoyl)-O-methyl-L-tyrosine N-Methyl amide] | 5
11 | CCCCCCC(C(=O)N[C@@H](Cc1ccc(OC)cc1)C(=O)NC)C(C)S (single isomer, unassigned) [Example 4 Isomer A, N-[2-(1-mercaptoethyl)octanoyl]-O-methyl-L-tyrosine N-methylamide] | 5
12 | CCCCCCC(C(=O)N[C@@H](Cc1ccc(OC)cc1)C(=O)NC)C(C)S (single isomer, unassigned) [Example 4 Isomer B, N-[2-(1-mercaptoethyl)octanoyl]-O-methyl-L-tyrosine N-methylamide] | 140
13 | CCCCC(C(=O)N[C@@H](Cc1ccc(OC)cc1)C(=O)NC)C(C)S (single isomer, unassigned) [Example 5 Isomer A, N-[2-(1-Mercaptoethyl)hexanoyl]-O-methyl-L-tyrosine N-methyl amide] | 0.2
14 | CCCCC(C(=O)N[C@@H](Cc1ccc(OC)cc1)C(=O)NC)C(C)S (single isomer, unassigned) [Example 5 Isomer B, N-[2-(1-Mercaptoethyl)hexanoyl]-O-methyl-L-tyrosine N-methyl amide] | 1
15 | CNC(=O)[C@@H](NC(=O)C(CC(C)C)C(C)S)[C@@H](C)OCc1ccccc1 (single isomer, unassigned) [Example 6 Isomer A, N-[2-(1-Mercaptoethyl)-4-methylpentanoyl]-O-benzyl-L-threonine N-Methylamide] | 0.45
16 | CNC(=O)[C@@H](NC(=O)C(CC(C)C)C(C)S)[C@@H](C)OCc1ccccc1 (single isomer, unassigned) [Example 6 Isomer B, N-[2-(1-Mercaptoethyl)-4-methylpentanoyl]-O-benzyl-L-threonine N-Methylamide] | 4.9
17 | CCCCNC(=O)[C@H](C)NC(=O)C(CC(C)C)C(C)S (single isomer, unassigned) [Example 7 Isomer A, N-[2-(1-S-Mercaptoethyl)-4-methyl-pentanoyl]-L-alanine N-butylamide] | 4.9
18 | CCCCNC(=O)[C@H](C)NC(=O)C(CC(C)C)C(C)S (single isomer, unassigned) [Example 7 Isomer B, N-[2-(1-S-Mercaptoethyl)-4-methyl-pentanoyl]-L-alanine N-butylamide] | 2
19 | CCCCNC(=O)[C@H](C)NC(=O)C(CC(C)C)C(C)S (single isomer, unassigned) [Example 7 Isomer C, N-[2-(1-S-Mercaptoethyl)-4-methyl-pentanoyl]-L-alanine N-butylamide] | 1.2

Same assay, conditions: Table 3; all compounds S stereochemistry at c; 37° C., 16 hours, pH 7.6; read-out: IC50 against human rheumatoid sinovial collagenase

Row | Structure (SMILES) | IC50 [µM]
20 | CNC(=O)[C@H](Cc1ccc(OC)cc1)NC(=O)C(CC(C)C)C(C)S (single isomer, unassigned) [Example 1 Isomer B1, N-[2-(1-Mercaptoethyl)-4-methylpentanoyl]-O-methyl-L-tyrosine N-Methylamide] | 0.22
21 | CNC(=O)[C@@H](NC(=O)C(CC(C)C)C(C)S)[C@@H](C)OCc1ccccc1 (single isomer, unassigned) [Example 6 Isomer A, N-[2-(1-Mercaptoethyl)-4-methylpentanoyl]-O-benzyl-L-threonine N-Methylamide] | 0.45
22 | CCCCNC(=O)[C@H](C)NC(=O)C(CC(C)C)C(C)S (single isomer, unassigned) [Example 7 Isomer C, N-[2-(1-S-Mercaptoethyl)-4-methyl-pentanoyl]-L-alanine N-butylamide] | 1.2
23 | CNC(=O)[C@H](Cc1ccc(OC)cc1)NC(=O)C(CS)CC(C)C (some centres unmarked) [reference compound] | 3.6
24 | CCCCNC(=O)[C@H](C)NC(=O)C(CS)CC(C)C (some centres unmarked) [reference compound] | 37
25 | CNC(=O)[C@@H](NC(=O)C(CS)CC(C)C)C(C)OCc1ccccc1 (some centres unmarked) [reference compound] | 4.8

Same assay, conditions: Table 3 footnote 4; individual determinations; read-out: IC50, individual results (footnote 4: mean of two results)

Row | Structure (SMILES) | IC50
26 | CCCCNC(=O)[C@H](C)NC(=O)C(CS)CC(C)C (some centres unmarked) [reference compound] | 25 µM and 44 µM
